The first series relates to HBV. In words: HepAD38 antiviral assay: reduction of viral product accumulation (virion DNA by qPCR; HBsAg/HBeAg ELISA). Conditions: Hepatitis B virus, 120 h; HepAD38 cells, tetracycline removed; harvest five days after compound addition; 50% reduction of viral product vs no drug controls. The class given is cell-based. The method, then: (§1) Methods: HepAD38 cells are maintained as previously reported (Ladner et at, Antimicrob. Agents Chemother. 1997, […], 1715). Briefly, cells are passaged upon attaining confluency in DMEM/F12 media in the presence of 10% FBS, Penn/Strep, 250 μg/mL G418, and 1 ug/ml tetracycline. Novel compounds are screened by first washing cells three times with PBS to remove tetracycline, and plating in 96 well plates at 35,000 cells/well. Compounds dissolved in DMSO are then diluted 1:200 into wells containing cells. Five days after compound addition, material is harvested for analysis. For an extended 8 day analysis, cells are plated and treated as described above, but media and compound are refreshed on d2 and d5 post initial treatment.
On harvest day, virion DNA is obtained by lysing with Sidestep Lysis and Stabilization Buffer and then quantified via quantitative real time PCR. Commercially available ELISA kits are used to quantitate the viral proteins HBsAg (Alpco) or HbeAg (US Biological) by following the manufacturer's recommended protocol after diluting samples to match the linear range of their respective assays. Irrespective of readout, compound concentrations that reduce viral product accumulation in the cell lysates or supernatants by 50% relative to no drug controls (EC50) are reported; EC50 ranges are as follows: A<1 μM; […].
Background: Quantitative PCR measures a nucleic acid by following its amplification.
`O=C(Nc1ccc(F)c(C2CC2)c1)c1ccc(Cl)c(C(F)(F)CCCO)c1` [Compound 15] came in with an EC50 of more than 10 µM.

Regarding `O=C(Nc1cc(F)c(F)c(F)c1)c1ccc(Cl)c(C(O)CCCO)c1` (stereo not drawn) [Compound 22], the EC50 is more than 10 µM.

In turn, `CC(C)(C)NC(=O)OCCCC(F)(F)c1cc(C(=O)Nc2ccc(Cl)c(C#N)c2)ccc1Cl` [Compound 10] registered an EC50 of more than 10 µM.

Molecule `OCCCC(F)(F)c1cc(-c2nc(-c3ccc(F)c(Br)c3)c[nH]2)ccc1Cl` [Compound 20] yielded an EC50 of more than 10 µM.

`O=C(Nc1ccc(F)c(C(F)(F)F)c1)c1ccc(Cl)c(C(F)(F)CCCO)c1` [Compound 16] gave an EC50 of more than 10 µM.

On to `N#Cc1cc(NC(=O)c2ccc(Cl)c(C(F)(F)CCCOC(=O)NCc3ccccc3)c2)ccc1Cl` [Compound 8], for which the EC50 is more than 10 µM.

As to `N#Cc1ccc(NC(=O)c2ccc(Cl)c(C(F)(F)CCCO)c2)cc1C(F)(F)F` [Compound 19], the EC50 is more than 10 µM.

Consider `N#Cc1cc(NC(=O)c2ccc(Cl)c(C(F)(F)CCCO)c2)ccc1Cl` [Compound 4], for which the EC50 is more than 10 µM.

In turn, `CC(F)(CCCO)c1cc(C(=O)Nc2cc(F)c(F)c(F)c2)ccc1Cl` (stereo not drawn) [Compound 21] gave a half-maximal effective concentration (EC50) of more than 10 µM.

Molecule `COc1ccc(NC(=O)c2ccc(Cl)c(C(F)(F)CCCO)c2)cc1C#N` [Compound 5] yielded an EC50 of more than 10 µM.

With `O=C(Nc1cc(F)c(F)c(F)c1)c1ccc(Cl)c(C(F)(F)CCCO)c1` [Compound 1], the EC50 was less than 1 µM.

For the molecule `O=C(Nc1ccc(C2CC2)c(Cl)c1)c1ccc(Cl)c(C(F)(F)CCCO)c1` [Compound 12], the EC50 was more than 10 µM.

As to `N#Cc1cc(NC(=O)c2ccc(Cl)c(C(F)(F)CCCOC(=O)Nc3ccccc3)c2)ccc1Cl` [Compound 9], the EC50 is more than 10 µM.

In the case of `CCNC(=O)OCCCC(F)(F)c1cc(C(=O)Nc2ccc(Cl)c(C#N)c2)ccc1Cl` [Compound 7], the EC50 is more than 10 µM.

`O=C(Nc1ccc(C(F)(F)F)c(C2CC2)c1)c1ccc(Cl)c(C(F)(F)CCCO)c1` [Compound 11] yielded an EC50 of more than 10 µM.

Turning to `N#Cc1ccc(NC(=O)c2ccc(Cl)c(C(F)(F)CCCO)c2)cc1F` [Compound 13], the EC50 was more than 10 µM.

In the case of `O=C(Nc1cc(F)c(F)c(F)c1)c1ccc(Cl)c(C(F)CCCO)c1` (stereo not drawn) [Compound 23], the EC50 was more than 10 µM.

Turning to `COc1ccc(NC(=O)c2ccc(Cl)c(C(F)(F)CCCO)c2)cc1C1CC1` [Compound 6], the EC50 was 1 to 10 µM.

Consider `O=C(Nc1cc(F)c(F)c(F)c1)c1ccc(Cl)c(C(F)(F)CCCF)c1` [Compound 3], for which the EC50 is less than 1 µM.

For the molecule `N#Cc1ccc(NC(=O)c2ccc(Cl)c(C(F)(F)CCCO)c2)cc1Cl` [Compound 14], the EC50 is more than 10 µM.

As to `O=C(Nc1ccc(C(F)(F)F)c(Cl)c1)c1ccc(Cl)c(C(F)(F)CCCO)c1` [Compound 18], the EC50 was more than 10 µM.

In turn, `O=C(Nc1ccc(F)c(Cl)c1)c1ccc(Cl)c(C(F)(F)CCCO)c1` [Compound 17] displayed an EC50 of more than 10 µM.

`COC(=O)OCCCC(F)(F)c1cc(C(=O)Nc2cc(F)c(F)c(F)c2)ccc1Cl` [Compound 2] had an EC50 of 1 to 10 µM.

Tested on in a further series: not listed separately
The series is described as follows: Compound toxicity by ATPlite 1 Step (total ATP levels). The class given is cell-based. Conditions: human; HepAD38 cells, day of harvest; 50% reduction of total ATP vs no drug controls. The method, then:
as §1
Additionally, on day of harvest, compound toxicity is evaluated by treating cells with ATPlite 1 Step according to the manufacturer's protocol. Compound concentrations that reduce total ATP levels in wells by 50% relative to no drug controls (CC50) are reported; CC50 ranges are as follows: […].
Background: In ATP-based viability assays light output follows the ATP content of the culture.
Regarding `CC(F)(CCCO)c1cc(C(=O)Nc2cc(F)c(F)c(F)c2)ccc1Cl` (stereo not drawn) [Compound 21], the CC50 was more than 30 µM.

Turning to `O=C(Nc1cc(F)c(F)c(F)c1)c1ccc(Cl)c(C(F)(F)CCCO)c1` [Compound 1], the CC50 was less than 10 µM.

Take `O=C(Nc1cc(F)c(F)c(F)c1)c1ccc(Cl)c(C(F)(F)CCCF)c1` [Compound 3]: the CC50 is less than 10 µM.

The molecule `COC(=O)OCCCC(F)(F)c1cc(C(=O)Nc2cc(F)c(F)c(F)c2)ccc1Cl` [Compound 2] came in with a CC50 of 10 to 30 µM.

In general, EC50 refers to the concentration that produces a half-maximal response. The term CC50 denotes the concentration at which the toxic effect on the cells reaches its halfway point. Low readings indicate harm at low concentration, high ones better tolerance by the cells.
